Reference: patent US20140329863A1 (priority 2011, published 2014)

Experiments:
Binding in human plasma = details: for Percentage binding, Human plasma, 1 μM / Unbound (%), Human Plasma: 1 μM; for Unbound (%), Human Plasma: mean ± SD, n = 3 (warfarin n = 2)
[1] = Fraction unbound in cell-culture media; type: in vitro ADME; details: 1 μM; mean ± SD, n = 3
[2] = CYP phenotyping in human liver microsomes, no inhibitor (negative control, maximum metabolism); type: in vitro ADME
CYP1A2 = target: T1, CYP1A2 (Homo sapiens, UniProt P05177); assay: CYP phenotyping in human liver microsomes, furafylline; type: in vitro ADME; details: for CYP Involvement: CYP1A2, NADPH + Furafylline; for % Disappearance / Measured Conc. / Δ % Disappearance: irreversible incubation condition, NADPH + Furafylline
T1 construct: tissue BD Biosciences; host or cells: pooled human liver microsomes
T1 sequence (P05177 1-516): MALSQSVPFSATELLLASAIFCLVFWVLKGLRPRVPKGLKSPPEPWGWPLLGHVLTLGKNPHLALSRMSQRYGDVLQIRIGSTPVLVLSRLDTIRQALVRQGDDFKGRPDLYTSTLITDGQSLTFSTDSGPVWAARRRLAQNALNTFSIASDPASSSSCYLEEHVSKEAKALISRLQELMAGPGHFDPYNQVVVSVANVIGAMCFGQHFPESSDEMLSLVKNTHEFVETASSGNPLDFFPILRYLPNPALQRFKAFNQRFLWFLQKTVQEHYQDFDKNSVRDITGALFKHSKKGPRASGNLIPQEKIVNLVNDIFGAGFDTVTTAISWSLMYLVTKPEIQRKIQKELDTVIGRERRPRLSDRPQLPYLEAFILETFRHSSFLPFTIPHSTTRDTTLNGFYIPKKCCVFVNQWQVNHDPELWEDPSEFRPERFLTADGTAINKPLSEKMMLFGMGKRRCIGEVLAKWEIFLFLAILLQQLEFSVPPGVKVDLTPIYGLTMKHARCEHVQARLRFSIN

[3] = Metabolite identification in human, mouse, rat and dog liver microsomes; type: in vitro ADME
Protocol: Samples were injected onto a BetaBasic C18 column and eluted with a gradient elution of mobile phase B (0.1% formic acid in ACN) from 5% to 95% over 30 min. For IND24-containing samples, the transitions monitored were 344→226 (parent); 360→226 and 360→242 (monohydroxylation); and 376→242 and 376→258 (dihydroxylation). […] Plasma and brain homogenate samples from FVB mice in single-dose (10 mg/kg) pharmacokinetic studies were similarly scanned to detect potential hydroxylated metabolites.
Metabolites were separated on a Kinetex 100-Å column (2.6 μm, 100×2.1 mm, Phenomenex, Torrance, Calif.) at ambient temperature. […]
The Orbitrap mass analyzer was calibrated according to the manufacturer's directions using a mixture of caffeine, Met-Arg-Phe-Ala (MRFA) peptide and Ultramark 1621. The parent compounds and their metabolites were detected by full scan mass analysis from m/z 150-1000 at a resolving power of 60,000 [at m/z 400, full width at half maximum (FWHM); 1-s acquisition] with data-dependent MS/MS analyses triggered by the most abundant ion. […] The data obtained was analyzed using Xcalibur v2.1 software (ThermoScientific; Waltham Mass.). Four-decimal monoisotopic masses of the parent compounds and their oxidative metabolites calculated using ChemBioDraw Ultra software version 11.0 (CambridgeSoft; Cambridge, Mass.) were used to interpret further the fragment ions.

in vitro [4] = details: mouse, 20% brain homogenate
in vitro [5] = details: rat, plasma, pH 7.4
CYP3A4 = target: T2, CYP3A4 (Homo sapiens, UniProt P08684); assay: Cytochrome P450 phenotyping in human liver microsomes, CYP3A4 (ketoconazole); type: in vitro ADME; details: HLM, 1 μM ketoconazole
T2 construct: tissue BD Biosciences; host or cells: pooled human liver microsomes
T2 sequence (P08684 whole entry): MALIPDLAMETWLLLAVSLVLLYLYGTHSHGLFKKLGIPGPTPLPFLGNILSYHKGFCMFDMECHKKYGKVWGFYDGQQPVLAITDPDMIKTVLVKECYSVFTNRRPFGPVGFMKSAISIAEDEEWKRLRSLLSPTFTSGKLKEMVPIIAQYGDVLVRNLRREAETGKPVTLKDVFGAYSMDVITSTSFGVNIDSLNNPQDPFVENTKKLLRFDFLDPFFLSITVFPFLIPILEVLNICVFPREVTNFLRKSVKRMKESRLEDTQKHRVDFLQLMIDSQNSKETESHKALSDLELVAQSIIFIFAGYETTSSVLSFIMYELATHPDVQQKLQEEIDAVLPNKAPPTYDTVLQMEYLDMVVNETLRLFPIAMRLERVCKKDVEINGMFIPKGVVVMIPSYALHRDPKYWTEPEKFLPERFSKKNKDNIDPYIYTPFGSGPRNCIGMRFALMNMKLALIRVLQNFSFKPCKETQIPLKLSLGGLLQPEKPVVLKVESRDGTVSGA
Source text: (§1) % Disappearance=[(TC-NADPH TC+NADPH)/TC-NADPH]×100
(§2) for which TC is the test compound.

CYP2C9 = target: T3, CYP2C9 (Homo sapiens, UniProt P11712); assay: Cytochrome P450 phenotyping in human liver microsomes, CYP2C9 (sulfaphenazole); type: in vitro ADME; details: HLM, 5 μM sulfaphenazole
T3 construct: tissue BD Biosciences; host or cells: pooled human liver microsomes
T3 sequence (P11712 whole entry): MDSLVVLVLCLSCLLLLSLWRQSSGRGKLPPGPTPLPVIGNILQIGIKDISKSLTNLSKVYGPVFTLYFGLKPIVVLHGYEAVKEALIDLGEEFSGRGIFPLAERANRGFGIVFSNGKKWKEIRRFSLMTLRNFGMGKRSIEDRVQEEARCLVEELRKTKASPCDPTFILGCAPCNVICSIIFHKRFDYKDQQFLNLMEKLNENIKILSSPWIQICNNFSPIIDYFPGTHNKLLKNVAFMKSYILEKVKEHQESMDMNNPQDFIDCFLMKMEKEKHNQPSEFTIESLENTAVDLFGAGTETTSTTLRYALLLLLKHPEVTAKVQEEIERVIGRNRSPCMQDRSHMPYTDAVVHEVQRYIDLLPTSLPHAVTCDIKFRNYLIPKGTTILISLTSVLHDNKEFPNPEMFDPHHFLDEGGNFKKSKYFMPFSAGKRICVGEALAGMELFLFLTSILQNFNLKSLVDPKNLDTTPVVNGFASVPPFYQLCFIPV
Source text: as §1, §2

in vitro [6] = details: Sprague-Dawley (rat), beagle (dog), CD-1 (mouse), human, plasma
CYP2C19 = CYP2C19 (Homo sapiens, UniProt P33261); details: HLM, 5 μM (+)-N-3-benzylnirvanol
Chain of CYP2C19 (P33261 whole entry): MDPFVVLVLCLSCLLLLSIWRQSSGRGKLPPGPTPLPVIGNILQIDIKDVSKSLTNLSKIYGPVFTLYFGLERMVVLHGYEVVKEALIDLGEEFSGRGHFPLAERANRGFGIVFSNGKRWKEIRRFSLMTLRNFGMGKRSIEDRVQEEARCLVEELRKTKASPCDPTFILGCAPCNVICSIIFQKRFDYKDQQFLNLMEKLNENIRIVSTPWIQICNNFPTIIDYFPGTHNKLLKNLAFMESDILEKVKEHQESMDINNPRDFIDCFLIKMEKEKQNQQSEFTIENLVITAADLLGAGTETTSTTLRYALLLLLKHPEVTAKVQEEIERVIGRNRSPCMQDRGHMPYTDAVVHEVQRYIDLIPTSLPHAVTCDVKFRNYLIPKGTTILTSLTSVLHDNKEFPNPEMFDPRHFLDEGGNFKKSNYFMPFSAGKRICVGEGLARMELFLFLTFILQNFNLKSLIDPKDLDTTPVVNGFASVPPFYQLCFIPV

[7] = irreversible incubation condition, maximum metabolism, NADPH/No Inhibitor
[8] = irreversible incubation condition, negative control, No NADPH/No Inhibitor
[9] = reversible incubation condition, maximum metabolism, NADPH/No Inhibitor
[10] = reversible incubation condition, negative control, No NADPH/No Inhibitor

Cc1cccc(Nc2nc(-c3ccc(-c4ccccc4)cc3)cs2)n1 [IND24, (4-Biphenyl-4-yl-thiazol-2-yl)-(6-methyl-pyridin-2-yl)-amine]
Percentage binding, Human plasma, 1 μM (Binding in human plasma): 95.1 ± 1.03% | Unbound (%), Human Plasma (Binding in human plasma): 4.91 ± 1.03% | Percentage binding, Human plasma, 10 μM (Binding in human plasma): 95.4 ± 1.17% | Percentage binding, Dog plasma, 1 μM (Binding in dog plasma): 95.1 ± 1.38% | Percentage binding, Dog plasma, 10 μM (Binding in dog plasma): 95.0 ± 0.32% | Unbound (%), Cell-culture Media [1]: 25.7 ± 4.93% | % Disappearance [2, 7]: 0 (−18) % | Measured Conc. [2, 7]: 0.733 µM | Δ % Disappearance [2, 7]: 0% | Measured Conc. [2, 8]: 0.622 µM | % Disappearance [2, 9]: 0% | Measured Conc. [2, 9]: 0.655 µM | Δ % Disappearance [2, 9]: 0% | % Disappearance [2, 10]: 0% | Measured Conc. [2, 10]: 0.654 µM | Percentage binding, Rat plasma, 1 μM (Binding in rat plasma): 93.4 ± 2.13% | Percentage binding, Rat plasma, 10 μM (Binding in rat plasma): 94.0 ± 1.04% | CYP Involvement (CYP1A2): Unlikely (unlikely for values <5) | % Disappearance (CYP1A2): 0 (−23) % | Measured Conc. (CYP1A2): 0.766 µM | Δ % Disappearance (CYP1A2): 0% | major metabolites [3]: ring hydroxylation | fraction unbound (in vitro [4]): 0.07 to 0.08

Cc1ccnc(Nc2nc(-c3ccc(-c4ccccn4)s3)cs2)c1 [IND81, (4-Methyl-pyridin-2-yl)-[4-(5-pyridin-2-yl-thiophen-2-yl)-thiazol-2-yl]-amine]
Percentage binding, Human plasma, 1 μM (Binding in human plasma): 94.2 ± 3.21% | Unbound (%), Human Plasma (Binding in human plasma): 5.78 ± 3.21% | Percentage binding, Human plasma, 10 μM (Binding in human plasma): 95.2 ± 0.86% | Percentage binding, Dog plasma, 1 μM (Binding in dog plasma): 94.4 ± 1.88% | Percentage binding, Dog plasma, 10 μM (Binding in dog plasma): 94.7 ± 1.03% | Unbound (%), Cell-culture Media [1]: 23.2 ± 2.68% | fraction unbound at 4 h (in vitro [5]; Sprague-Dawley): ~0.57 | fraction unbound at 4 h (in vitro [5]): 0.04 to 0.07 | involvement of CYP3A4 in metabolism (CYP3A4): most likely to be involved | involvement of CYP2C9 in metabolism (CYP2C9): unlikely to be involved | % Disappearance [2, 7]: 84% | Measured Conc. [2, 7]: 0.143 µM | Δ % Disappearance [2, 7]: 0% | % Disappearance [2, 8]: 0% | Measured Conc. [2, 8]: 0.899 µM | % Disappearance [2, 9]: 66% | Measured Conc. [2, 9]: 0.226 µM | Δ % Disappearance [2, 9]: 0% | % Disappearance [2, 10]: 0% | Measured Conc. [2, 10]: 0.664 µM | Percentage binding, Rat plasma, 1 μM (Binding in rat plasma): 94.2 ± 0.48% | Percentage binding, Rat plasma, 10 μM (Binding in rat plasma): 95.5 ± 0.66% | fraction unbound (in vitro [6]): 0.57 | CYP Involvement (CYP1A2): Unlikely (unlikely for values <5) | % Disappearance (CYP1A2): 41% | Measured Conc. (CYP1A2): 0.534 µM | Δ % Disappearance (CYP1A2): 43% | major metabolites [3]: ring hydroxylation | fraction unbound (in vitro [4]): 0.09 | involvement of CYP2C19 in metabolism (CYP2C19): might be involved to a smaller extent
